Laboratory results as given in patent US6245796A, “Tricyclic pyrrole or pyrazole derivative” (priority 1997, dated 2001).
Where a name gives a salt, the structure may show the parent alone. Read-outs that look alike come from different tables or passages of the source.

Legend:
5-HT2A receptor = 5-HT2A receptor (Homo sapiens, UniProt P28223); test: biochemical; format: binding
Procedure: (§1) The 5-HT2C and 5-HT2A receptors: Carried out by [^3 H] 5-HT binding assay in accordance with the method of A. Pazos et al., Eur. J. Pharmacol., 106, 539-546 (1985) or S. Havlik and S. J. Peroutka, Brain Res., 584, 191-196 (1992).
(§2) Using the above method, a drug concentration which inhibits 50% of receptor binding of ligand (IC50 value) was calculated, and a Ki value which represents affinity for the receptor was obtained by the following formula.
(§3) ([L]: ligand concentration, [Kd]: dissociation constant)

5-HT2C receptor = test: [3H] 5-HT binding assay, 5-HT2C receptor; details: Ki=IC50/(1+[L]/[Kd]), read-out: Binding test Ki, 5-HT2C receptor
Procedure: as §1, §2, §3

5-HT2A receptor, sequence (P28223 whole entry): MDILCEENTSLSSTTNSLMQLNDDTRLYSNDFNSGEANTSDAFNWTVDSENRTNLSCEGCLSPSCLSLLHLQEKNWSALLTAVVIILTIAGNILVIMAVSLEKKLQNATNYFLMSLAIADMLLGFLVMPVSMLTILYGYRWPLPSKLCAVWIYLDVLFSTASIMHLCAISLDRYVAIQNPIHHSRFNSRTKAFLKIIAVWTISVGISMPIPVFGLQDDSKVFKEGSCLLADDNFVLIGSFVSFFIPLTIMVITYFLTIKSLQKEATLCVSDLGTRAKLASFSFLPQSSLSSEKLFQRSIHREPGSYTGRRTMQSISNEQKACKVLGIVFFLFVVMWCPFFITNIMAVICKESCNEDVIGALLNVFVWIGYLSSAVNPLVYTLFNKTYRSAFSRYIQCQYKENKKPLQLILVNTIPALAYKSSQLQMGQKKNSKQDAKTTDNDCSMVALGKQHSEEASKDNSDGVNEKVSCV

Structure (SMILES) | Ki (5-HT2A receptor) | Ki (5-HT2C receptor) | Ki (5-HT2A receptor; [3H] 5-HT binding, Ki=IC50/(1+[L]/[Kd]), read-out: Binding test Ki, 5-HT2A receptor)
CCc1nn(CCN)c2c1ccc1occc12 [Example 55, 2-(3-Ethyl-1H-furo[2,3-g]indazol-1-yl)ethylamine dihydrochloride] | 50 nM | 4.1 nM | –
COc1nn(C[C@H](C)N)c2c1ccc1occc12 [Example 37, (S)-2-(3-Methoxy-1H-furo[2,3-g]indazol-1-yl)-1-methylethylamine fumarate] | – | 0.5 nM | 8.7 nM
NCCn1ncc2ccc3sc(Br)cc3c21 [Example 20, 2-(7-Bromo-1H-thieno[2,3-g]indazol-1-yl)ethylamine hydrochloride] | 18 nM | 0.8 nM | –
